How the values were obtained:
[1] = tested on: ovarian steroidogenosis; test: Inhibitory activity on ovarian steroidogenesis in women; type: in vivo; details: for reduction of seric levels of progesterone as compared to the controls: typical subject (FIGS. 3A-3D)
Protocol: The inhibitory activity of D Ser (Tbu)^6 or Gly^10 LH-RH ethylamide on ovarian steroidogenosis in women was determined on 6 women aged 26 to 35 years with normal and regular menstrual cycles and without prior endocrinal or gynecological problems. […] […] Daily blood samples were taken between 4 and 6 P.M. to measure seric levels of LH, FSH, progesterone and estradiol which were determined by radioimmuno-logic tests with double antibodies. The antibodies to measure LH and FSH were furnished by the National Pituitory Agency of N.I.H. of Bethesda, Md.
Estradiol and progesterone were measured with highly specific antibodies developed against 7-(O-carboxymethyl)-oxime of estradiol and 12-(O-carboxymethyl)-oxime of progesterone, respectively [3H] 17β-estradiol and ^125 I-progesterone-12-[0-carboxymethyl)-oxime]used as tracers. The serum was extracted with benzene and the steroids were separated with a LH 20 column before the determination. The radioimmunological results were exploited by the program derived from model II of Rodbard and Lewald as in Example 1 and the statistical significance was measured by the multiple level test of Ducan-Kramer of Example 1. The results are shown in the graphs of sheets 1 to 16 of the Figures.

[2] = tested on: testicular steroidogensis; test: Inhibitory activity against testicular steroidogenesis in men in good health, single intranasal dose; type: in vivo; details: human, single intranasal dose 500 μg
Protocol: The said product was administered intranasally at a dose of 500 μg in a few drops of distilled water at 8 A.M. on the third day of the test. For 2 days prior to the treatment and for 6 days after the treatment, samples of blood were taken daily at 8 A.M., 3 P.M. and 10 P.M. On the day of administration of the LH-RH agonist, blood samples were taken at 11 A.M. and 6 P.M.
The seric concentrations of LH and FSH were measured by radioimmuno-logic dosages with double antibodies and the antibodies for measuring LH and FSH were furnished by the National Pituitary Agency of N.I.H. in Bethesda, Md. The seric concentrations of steroids was measured by radioimmuno-logic dosages in which one ml of serum was extracted with ether and the steroids were separated on a LH-20 column before measuring with radioimmuno-logic dosages. The radioimmuno-logic dosage results were determined by a program derived from model II of Rodbard et al [Second Karolinska Symposium on Research Methods in Reproductive Endocrinology, Diezfalusky Editor, Copenhague (1970), p. 79-103]. The statistical significance was determined by the "multiple level test" of Duncan-Kramer [Kramer, Biometrics, Vol 12 (1956), p. 307]. The results are shown in the FIGS. 1A to 1H filed herewith.

[3] = tested on: testicular steriodogenosis; test: Inhibitory activity on testicular steroidogenesis in a patient with prostate cancer; type: in vivo, human; details: intranasal 500 μg twice a day
Text: The results are reported in the graphs of sheet 2 of the Figures.

CCNC(=O)[C@@H]1CCCN1C(=O)[C@H](CCCNC(=N)N)NC(=O)[C@H](CC(C)C)NC(=O)[C@@H](COC(C)(C)C)NC(=O)[C@H](Cc1ccc(O)cc1)NC(=O)[C@H](CO)NC(=O)[C@H](Cc1c[nH]c2ccccc12)NC(=O)[C@H](Cc1c[nH]cn1)NC(=O)[C@@H]1CCC(=O)N1 [D Ser (Tbu)^6 of Gly^10 LH-RH ethylamide]
level of seric progesterone, course ([1]; 2 cycles of treatment (FIGS. 4A-4F)): accelerated diminution
level of progesterone, % of control values (pretreatment cycles = 100%) ([1]; 12 cycles of post-treatment): 99%
level of progesterone, % of control values (pretreatment cycles = 100%) ([1]; 12 cycles of treatment): 46%
level of progesterone reduced as compared to the controls ([1]; all 12 treatment cycles (FIGS. 5A-5L), scale 13 to 127%): 46%
reduction of seric levels of progesterone as compared to the controls ([1]; first of the 2 cycles of treatment, intranasal 500 μg at 8 A.M. and 5 P.M. of one day): 13%
reduction of seric levels of progesterone as compared to the controls ([1]; second of the 2 cycles of treatment): 34%
duration of the lessening of cyclicity and drop of seric levels of testicular steroids [2]: 3 days
androgenic steroids, plasmatic level [3]: diminution
level of testosterone ([3]; two weeks of treatment): stabilized at a very low level

— patent US5688769A, “Treatment method” (Uclaf; Roussel, priority 1979, dated 1997)
